Measured values taken from a melting point compilation (Tetko et al.; mined from patent text by program, amines drawn as free bases though some values may be those of a salt).

Compared with Cc1cc(OC(F)(F)F)ccc1O, CSc1ccc(N=C=O)cc1C(F)(F)F is lower in melting point: 72 °C for the first, 40 °C for the second.

First: CN1CCN(Cc2ccc(Nc3ccnc4cc(C(F)(F)F)ccc34)cc2)CC1
Second: COc1ccc(C(=O)N2CCN(CCc3ccc(Cl)cc3)CC2)cc1
The melting point of the first is higher: 218 to 220 °C for the first, 105 to 106 °C for the second.

Compared with CC1(C)CC(=O)C(C(=O)Nc2cccc(Cl)c2)C(=O)C1, Cc1ccc(C2C(=O)CC(C)(C)CC2=O)cc1 is higher in melting point: 89 to 91 °C for the first, 200 to 202 °C for the second.

First: COC(=O)COc1ccc(C(=O)CN(C)C(=O)OCc2ccccc2)cc1OCC(=O)OC
Second: COc1cc(OC)nc(C(=O)c2nccc(-c3ccccc3)c2C(=O)OCc2ccccc2)n1
The melting point of the first is lower: 56 to 59 °C for the first, 124 to 126 °C for the second.

First: CNC(=O)c1cc(-c2ccc(SC)cc2)nn(CC2CC2)c1=O
Second: CC(=O)N1N=C(c2ccc([N+](=O)[O-])cc2)c2ccc(Cl)cc2CC1C (centres undefined)
The melting point of the first is lower: 116 to 118 °C for the first, 174 to 175 °C for the second.

First: CCc1nc2c(N)nc3ccccc3c2n1CCCCNC(=O)C1CCCC1
Second: CCc1c2c(nn1-c1ccccc1)c(Cl)nc1ccccc12
The melting point of the first is lower: 179 to 180 °C for the first, 207 to 209 °C for the second.

Compared with O=[N+]([O-])c1cnc2ccccc2c1NCC12CCCN1CCC2, C=C1CCC2(Cc3ccccc3)C3Cc4ccc(O)cc4C2(CCN3CC2CC2)C1 (centres undefined) is higher in melting point: 155 to 158 °C for the first, 212 °C for the second.

First: Cc1oc(-c2ccccc2)nc1COc1ccc(COc2nn(C)cc2CC(=O)O)cc1
Second: NC(=O)Cc1ccc(OCCc2coc(-c3ccccc3)n2)cc1
The melting point of the first is lower: 133 to 134 °C for the first, 180 to 184 °C for the second.

Compared with CCOCc1nc2c(c3cc(OCc4ccccc4)ccc3n3nnnc23)n1CC(C)C, CCOc1cccc(-c2nc(-c3ccccc3COC(=O)OCc3ccccc3-c3n[nH]c(-c4cccc(OCC)c4)n3)n[nH]2)c1 is lower in melting point: 184 °C for the first, 143 to 145 °C for the second.

Compared with COc1ccc(C(=O)CCCCCBr)cc1, CCCCCC(=O)c1ccc(C(=O)Nc2ccc3cc(CN4CCCC4)cnc3c2C)cc1 is higher in melting point: 40 to 41 °C for the first, 175 °C for the second.

First: CCN(CC)C(=O)Nc1ccc(S(=O)(=O)n2c(=O)n(-c3ccccc3Cl)c3cc(Cl)ccc32)cc1
Second: Cc1ccc(S(=O)(=O)N2CC3C(C2)C3Nc2ncc3cc(-c4ccccc4Cl)c(=O)n(C4CC4)c3n2)cc1 (centres undefined)
The melting point of the first is lower: 222 °C for the first, 265 to 274 °C for the second.

First: Fc1ccc(-c2cn(-c3ccncc3)c3ccccc23)cc1
Second: CC1(C)CCC(C)(C)c2nc3c(ccc4c(-c5ccc(C(=O)O)cc5)cn(Cc5cccnc5)c43)nc21
The melting point of the first is lower: 115 to 118 °C for the first, 286 to 288 °C for the second.

Compared with O=[N+]([O-])c1ccccc1Nc1ccc(Nc2nccs2)cc1, CC(C)c1cccc(C(C)C)c1NC(=O)NOC(c1ccccc1)c1ccccc1 is lower in melting point: 195 to 197 °C for the first, 152 to 154 °C for the second.

Compared with Cc1c(C)c2c(c(C)c1O)CCC(C)(CCOc1ccc(CC3SC(=N)NC3=O)cc1)O2 (centres undefined), COc1cc(-c2ccc(O)c(C3(C)CCCCC3)c2)cc(CC2SC(N3CCCC3)=NC2=O)c1O (centres undefined) is higher in melting point: 175 to 180 °C for the first, 204 to 206 °C for the second.

First: CC1=C(c2cccc(C(F)(F)F)c2)n2ncc(C#N)c2N(C(=O)CN2CCN(c3ccccn3)CC2)C1
Second: O=C1NCCc2ccc(OCCCN3CCN(c4cccc(Cl)c4Cl)CC3)cc21
The melting point of the first is lower: 132 to 134 °C for the first, 162 to 164 °C for the second.

Compared with CCCc1nc(C)n2[nH]c(=O)nc2c1Br, COCC1CN(c2ccc3ccc(OC)cc3c2)C(=O)O1 (centres undefined) is lower in melting point: 221 °C for the first, 95.5 to 96.5 °C for the second.

Compared with Cc1cc(-c2cnn3c(C(F)(F)F)cc(-c4ccc(OCC(F)(F)F)c(C(F)(F)F)c4)nc23)ccn1, CCc1c(C(F)(F)F)nn(-c2ccc(S(N)(=O)=O)nc2)c1-c1ccc(-c2cncs2)c(F)c1 is lower in melting point: 210 °C for the first, 189 to 191 °C for the second.

First: CC(C)C[C@H](NC(=O)OCc1ccccc1)C(=O)N[C@@H](Cc1ccccc1)C(=O)CSc1ccccc1
Second: O=C(O)Cc1ccccc1OCCC(c1ccccc1)(c1ccccc1)c1ccccc1
The melting point of the first is higher: 105 to 106 °C for the first, 79 to 80 °C for the second.

First: ClC(Cl)=CCOc1cc(Cl)c(OCc2cccc(Cl)c2)c(Cl)c1
Second: C/C(C=O)=C\COc1cccc2ccccc12
The melting point of the first is higher: 87 °C for the first, 81.5 to 82.5 °C for the second.

First: CCC(Oc1cc(C)cc(C)c1)C(=O)NCc1ccccc1 (centres undefined)
Second: CC(Oc1ccc2c(=O)c(-c3ccccc3)coc2c1)C(=O)O (centres undefined)
The melting point of the first is lower: 93 to 94 °C for the first, 201 to 202 °C for the second.

Compared with CN(c1cccc2cc(C3=NCC(CC(=O)N4CCS(=O)(=O)CC4)S3)[nH]c12)S(=O)(=O)c1cccs1 (centres undefined), CN(C)C1(c2ccccc2)CCC2(OCCc3c2[nH]c2ccccc32)C(CC#N)C1 (centres undefined) is higher in melting point: 158 °C for the first, 260 to 267 °C for the second.

First: O=c1c2c(N3CCNCC3)cc(Cl)cc2n(Cc2ccccc2)c(=O)n1Cc1ccccc1O
Second: Cc1ccc(CN2CCN3C(=O)OC(c4ccccc4)(c4ccccc4)C3C2)cc1 (centres undefined)
The melting point of the first is lower: 113 to 130 °C for the first, 154 to 155 °C for the second.

Compared with O=C(O)c1cc(=O)c(Cl)c(-c2ccccc2)o1, O=C(c1ccc(-c2ccc(Cl)cc2)cc1)C(O)O is higher in melting point: 216 to 218 °C for the first, 275 to 285 °C for the second.

Compared with COC(=O)c1cc(S(N)(=O)=O)cc2c1OCCO2, CCCC(=O)C(=CNc1ccc(O)cc1OC)C(=O)OCC is lower in melting point: 225 to 226 °C for the first, 140 to 142 °C for the second.

First: CC(=C[N+](=O)[O-])c1ccccc1O
Second: CC(=O)C(=Cc1ccc(O)c(C(=O)O)c1)C(C)=O
The melting point of the first is lower: 110 to 112 °C for the first, 112 to 114 °C for the second.

First: COC1CC2(C)C(CCC3C4CCC(C(=O)CBr)C4(C)CC(=O)C32)CC1O (centres undefined)
Second: COc1ccc2c(c1)CCC1C2=CCC2(C)C(OC(C)(C)C)CCC12 (single isomer, unassigned; (+))
The melting point of the first is higher: 185 to 188 °C for the first, 131 to 132 °C for the second.

Compared with Cn1ncc(C(=O)N2CC3(COC3)C2)c1C(=O)Nc1ccn2nc(N3CCOCC3)nc2c1, O=C(Nc1ccc(-n2nc(C(F)(F)F)cc2C2CC2)nc1)c1c(F)cccc1F is lower in melting point: > 300 °C for the first, 157 to 162 °C for the second.

First: O=C(NC(=O)c1c(F)cccc1F)Nc1cc(Br)c(F)c(Cl)c1F
Second: NC(=NO)c1ncn2c1[C@@H]1CCCN1C(=O)c1c(Br)cccc1-2
The melting point of the first is lower: 225 to 227 °C for the first, 235 to 237 °C for the second.

Compared with COc1cc(CC#N)c(OC)c(C)c1C, COc1ccc(CN2CCc3cc(O)ccc3C2)cc1OC is higher in melting point: 98 to 99 °C for the first, 119 to 122 °C for the second.

First: CC(C)OC(=O)c1cc(N)c(F)c(Cl)n1
Second: COC(=O)c1c(NCC(C)C)n[nH]c1C
The melting point of the first is higher: 191 to 192 °C for the first, 100 to 103 °C for the second.

First: O=C(COc1cccnc1)C12CC3CC(CC(C3)C1)C2
Second: CCOC(=O)C(O)=Cc1ncc(CCc2ccc(F)cc2)cn1
The melting point of the first is lower: 73 to 75 °C for the first, 133 to 134 °C for the second.

Compared with CC(O)CN(CCc1ccc(Nc2ncc3c(n2)-c2ccccc2C(c2cccc(Br)c2)C3)cc1)Cc1ccccc1 (centres undefined), O=S1(=O)c2cc(C=C(c3ccccc3)c3ccccc3)ccc2N(c2ccccc2)c2ccc(C=C(c3ccccc3)c3ccccc3)cc21 is higher in melting point: 90 to 92 °C for the first, 269 to 274 °C for the second.

Compared with COC(=O)C(C)=CC(C)=Cc1cc([N+](=O)[O-])ccc1Cl, Cc1cc(NS(=O)(=O)c2ccc(Cl)cc2)cc(C)c1S(=O)(=O)C[N+](=O)[O-] is higher in melting point: 88 to 90 °C for the first, 160 to 162 °C for the second.

First: Cc1ccc2c(c1)C(c1ccc(C(C)C)cc1)C(C)(C)O2 (centres undefined)
Second: Cc1nnc(Sc2ncnc3c(C)csc23)s1
The melting point of the first is lower: 65 to 66 °C for the first, 144 to 147 °C for the second.

In the case of BrCCCSc1ccc2ncnn2n1, the melting point is reported as 133 to 135 °C.
